What was measured:
[1] = system: DLD-1-BRCA2 KO+BRCA2 WT (BRCA2 KO+WT); assay: Growth inhibition of DLD-1-BRCA2 KO+BRCA2 WT, 12-day culture, photographed (Example 3); type: cell-based; settings: 1 μM; day 12
Description: (§1) DLD-1 cells (parental), DLD-1-BRCA2 KO (BRCA2 KO), or DLD-1-BRCA2 KO+BRCA2 WT (BRCA2 KO+WT) were seeded at 3×10^3 cells per well in a 6-well plate and incubated at 37 °C under 5% CO2. After removing the medium, a medium containing no drug, or containing 100 nM E7820, 1 μM E7820, 1 μM Indisulam (E7070), or 1 μM olaparib was added, and the cells were cultured at 37 °C under 5% CO2. The medium was replaced with fresh medium containing the same concentration of the drug on days 3, 6, and 9, with the day of drug addition being day 0. On day 12, the cells were photographed, and the sensitivity of the cells to each drug was evaluated.

[2] = system: DLD-1-BRCA2 KO (BRCA2 KO); assay: Growth inhibition of DLD-1-BRCA2 KO, 12-day culture, photographed (Example 3); type: cell-based; settings: 1 μM; day 12
Description: as §1

[3] = system: PDX tumors (cholangiocarcinoma, pancreatic cancer, gastric cancer, endometrial cancer, uterine sarcoma); assay: Therapeutic effect of E7820 in patient-derived xenograft (PDX) mouse models and relationship with gene mutations (Example 1); type: in vivo, human patient-derived tumors in NOG mice
Description: In 30 cases of patient-derived xenograft (PDX) mouse models, the therapeutic effect of the cancer therapeutic E7820 that regulates splicing function and the presence or absence of various gene mutations were evaluated.
PDX model mice were prepared by transplanting 2-3 mm square PDX tumor fragments subcutaneously into the back of test animals and allowing them to grow. The test animals used were NOD.Cg-Prkdcscidll2rgtmlSug/ShiJic (NOG mice), female, and 6 weeks old or older. Tumor tissues from 30 patients, including 9 cases of cholangiocarcinoma, 9 cases of pancreatic cancer, 6 cases of gastric cancer, 3 cases of endometrial cancer, and 3 cases of uterine sarcoma, were used as tumor tissues. Grouping was performed when the average tumor volume of the experimental animals reached a size suitable for grouping (approximately 200 mm^3), with each group consisting of n=3-5 mice.
From the day of grouping, E7820 was administered orally at a dose of 100 mg/kg once daily to the 30 PDX model mice prepared in 1-1. Body weight and tumor volume were measured twice a week during the observation period from the day before drug administration and from the day drug administration started (day 0) to day 21. Tumor volume was measured by measuring the long and short diameters of the tumor using calipers and calculating the tumor volume according to the following formula. For animals with no detectable tumor, the tumor volume was set to 0.00 mm^3.
Tumor volume (mm^3)=½×long diameter (mm)×short diameter (mm)×short diameter (mm)
Whole exome sequencing (WES), one of the next-generation sequencing methods, was performed on genomic DNA extracted from the PDX using the NovaSeq 6000 system (Illumina), and mutation analysis was conducted.

RBM39 (CAPERα) = settings: mechanism of action; Non Patent Literature 1; cited from earlier work
DLD-1 cells (parental) = assay: Growth inhibition of DLD-1 cells (parental), 12-day culture, photographed (Example 3); type: cell-based; settings: day 12
Description: as §1

γH2AX in wild-type DLD-1 = assay: Induction of DNA double-strand breaks (γH2AX Western blotting) in wild-type DLD-1 (Example 4); type: cell-based; settings: 1 μM; 72 hours
Description: DLD-1 cells (parental), DLD-1-BRCA2 KO (BRCA2 KO), or DLD-1-BRCA2 KO+BRCA2 WT (BRCA2 KO+WT) were seeded at 1×10^6 cells per well in a 6-well plate and incubated at 37 °C under 5% CO2. After removing the medium, a medium containing no drug, or containing 1 μM E7820, 1 μM Indisulam (E7070), or 1 μM olaparib was added, and the cells were cultured at 37 °C under 5% CO2 for 72 hours. After removing the medium, the cells were washed with PBS, cooled on ice, and RIPA buffer (containing protease and phosphatase inhibitors, Proteintech) was added. The cells were collected using a cell scraper. The collected samples were incubated on ice for 30 minutes, then centrifuged at 12,000×g for 15 minutes at 4 °C to pellet the cell debris. The supernatant was transferred to a new microtube without touching the pellet to obtain the lysate. The obtained lysate was used for SDS-PAGE, membrane transfer, and Western blotting to evaluate the induction of DNA double-strand breaks. The antibodies used for Western blotting were Anti-phospho-Histone H2A.X (Ser139) Antibody (anti-yH2AX antibody, cat #05-636, Sigma-Aldrich) and GAPDH (14C10) Rabbit mAb (anti-GAPDH antibody, cat #2118, Cell Signaling Technology).

[4] = 100 mg/kg orally once daily, day 21, among 14 cases with tumor reduction
[5] = 100 mg/kg orally once daily, day 21, among 16 cases without tumor reduction

Compound	growth inhibitory effect [1]	growth of surviving cells [1]	growth inhibitory effect [2]	induction of cell death [2]	remaining cells [2]	number of cases with mutations in one or more of BRCA1, BRCA2, ATM, ATR, and BAP1 among the 14 cases with tumor reduction effect [3, 4] [cases]	percentage of cases with mutations in one or more of BRCA1, BRCA2, ATM, ATR, and BAP1 among the 14 cases with tumor reduction effect [3, 4] [%]	number of cases with mutations in one or more of the five genes among the 16 cases without tumor reduction effect [3, 5] [cases]	percentage of cases with mutations in one or more of the five genes among the 16 cases without tumor reduction effect [3, 5] [%]	PDX model mice in which the tumor volume on day 21 was smaller than on day 0 (tumor reduction effect) ([3]; 100 mg/kg orally once daily, day 21 vs day 0)	cases in which no tumor reduction effect was observed ([3]; 100 mg/kg orally once daily, day 21 vs day 0, 30 PDX models) [cases]	tumor reduction effect in model mouse transplanted with a tumor having a mutation in a homologous recombination repair-related gene ([3]; PDX model mouse, tumor with mutation in homologous recombination repair-related gene)	promotion of the proteasomal degradation of RBM39 (RBM39 (CAPERα))	growth inhibitory effect (DLD-1 cells (parental); 100 nM)	growth inhibitory effect (DLD-1 cells (parental); 1 μM)	growth inhibitory effect (DLD-1 cells (parental); 1 pM (so in the source))	γH2AX levels (γH2AX in wild-type DLD-1)
Cc1ccc(NS(=O)(=O)c2cccc(C#N)c2)c2[nH]cc(C#N)c12 [E7820, N-(3-cyano-4-methyl-1H-indol-7-yl)-3-cyanobenzenesulfonamide]	growth inhibitory effects were observed	the growth of surviving cells was observed	significant growth inhibitory effects	induction of cell death were observed	almost no remaining cells	11	79	3	19	14 out of the 30 PDX model mice	16	high tumor reduction effect	promotion of the proteasomal degradation of RBM39	no growth inhibitory effect was observed	no growth inhibitory effect was observed		
NS(=O)(=O)c1ccc(S(=O)(=O)Nc2cccc3c(Cl)c[nH]c23)cc1 [Indisulam, N-(3-chloro-1H-indol-7-yl)-4-sulfamoylbenzenesulfonamide]	growth inhibitory effects were observed	the growth of surviving cells was observed	significant growth inhibitory effects	induction of cell death were observed	almost no remaining cells								promotion of the proteasomal degradation of RBM39			no growth inhibitory effect was observed	
Nc1ccc(S(=O)(=O)Nc2cnc3c(Cl)cccc3n2)cc1 [NSC339004, 4-amino-N-(5-chloroquinoxalin-2-yl)benzenesulfonamide]													promotion of the proteasomal degradation of RBM39				
O=C(c1cc(Cc2n[nH]c(=O)c3ccccc23)ccc1F)N1CCN(C(=O)C2CC2)CC1 [olaparib]	growth inhibitory effects were observed	the growth of surviving cells was observed	significant growth inhibitory effects	induction of cell death were observed	almost no remaining cells										no growth inhibitory effect was observed		increase in γH2AX levels
